Experimental data: US12492183B2, “Tetrahydroquinazoline derivatives as selective cytotoxic agents” (Merck Sharp & Dohme LLC, priority 2020, dated 2025)
pEC50: −log10 of the molar value.

Test system: PBMCs infected with VSV-G pseudotyped HIV virus (VSV-G/pNLG1-P2A-ΔEnv)
Assay: cells
Type: cell-based
Conditions: Homo sapiens, PBMC, read-out: TACK EC50

| Structure (SMILES) | pEC50 |
| --- | --- |
| Cn1ccc(Cc2ccc3c(c2)NC(=O)N[C@]3(C#CC2CC2)C(F)(F)F)cc1=O [Example 5, (S)-4-(cyclopropylethynyl)-7-((1-methyl-2-oxo-1,2-dihydropyridin-4-yl)methyl)-4-(trifluoromethyl)-3,4-dihydroquinazolin-2(1H)-one] | 6.80 |
| Nc1cncc(Cc2ccc3c(c2)NC(=O)N[C@]3(C#CC2CC2)C(F)(F)F)n1 [Example 54, (S)-7-((6-aminopyrazin-2-yl)-methyl)-4-(cyclopropyl-ethynyl)-4-(trifluoromethyl)-3,4-dihydroquinazolin-2(1H)-one] | 7.17 |
| CC(F)(F)[C@@]1(C#CC2CC2)NC(=O)Nc2cc(Cc3ccc(S(N)(=O)=O)cc3)ccc21 (single isomer, unassigned) [Example 20] | 6.94 |
| CC(F)(F)[C@@]1(C#CC2CC2)NC(=O)Nc2cc(Cc3ccnc(N)n3)ccc21 [Example 26, (S)-7-((2-aminopyrimidin-4-yl)methyl)-4-(cyclopropyl-ethynyl)-4-(1,1-difluoroethyl)-3,4-dihydroquinazolin-2(1H)-one] | 7.51 |
| Nc1cc(Cc2ccc3c(c2)NC(=O)N[C@]3(C#CC2CC2)C(F)(F)F)ccn1 [Example 12, (S)-2-amino-4-((4-(cyclopropylethynyl)-2-oxo-4-(trifluoromethyl)-1,2,3,4-tetrahydroquinazolin-7-yl)methyl)pyridin-1-ium 2,2,2-trifluoroacetate] | 6.88 |
| Nc1cc(Cc2ccc3c(c2)NC(=O)N[C@]3(C#CC2CC2)C(F)(F)F)ccc1S(N)(=O)=O [Example 7] | 6.64 |
| Nc1nccc(Cc2ccc3c(c2)NC(=O)N[C@]3(C#CC2CC2)C(F)(F)F)n1 [Example 25, (S)-7-((2-aminopyrimidin-4-yl)methyl)-4-(cyclopropylethynyl)-4-(trifluoromethyl)-3,4-dihydroquinazolin-2(1H)-one] | 7.34 |
| O=C1Nc2cc(Cc3ccc(CO)cn3)c(F)cc2[C@@](C#CC2CC2)(C(F)(F)F)N1 [Example 41, (S)-2-((4-(cyclopropylethynyl)-6-fluoro-2-oxo-4-(trifluoromethyl)-1,2,3,4-tetrahydroquinazolin-7-yl)methyl)-5-(hydroxymethyl)pyridin-1-ium 2,2,2-trifluoroacetate] | 7.04 |
| Nc1ncc(Cl)c(Cc2ccc3c(c2)NC(=O)N[C@]3(C#CC2CC2)C(F)(F)F)n1 [Example 28, (S)-7-((2-amino-5-chloropyr-imidin-4-yl)methyl)-4-(cyclo-propylethynyl)-4-(trifluoro-methyl)-3,4-dihydroquinazo-lin-2(1H)-one] | 6.84 |
| O=C1Nc2cc(Cc3cnccn3)c(F)cc2[C@@](C#CC2CC2)(C(F)(F)F)N1 [Example 51, (S)-4-(cyclopropylethynyl)-6-fluoro-7-(pyrazin-2-ylmeth-yl)-4-(trifluoromethyl)-3,4-dihydroquinazolin-2(1H)-one] | 7.02 |
| O=C1Nc2cc(Cc3ncc[nH]c3=O)ccc2[C@@](C#CC2CC2)(C(F)(F)F)N1 [Example 61, (S)-4-(cyclopropylethynyl)-7-((3-hydroxypyrazin-2-yl)methyl)-4-(trifluoromethyl)-3,4-dihydroquinazolin-2(1H)-one] | 7.19 |
| Nc1ncc(F)c(Cc2cc3c(cc2F)[C@@](C#CC2CC2)(C(F)(F)F)NC(=O)N3)n1 [Example 29, (S)-7-((2-amino-5-fluoropyr-imidin-4-yl)methyl)-4-(cyclo-propylethynyl)-6-fluoro-4-(trifluoromethyl)-3,4-dihydro-quinazolin-2(1H)-one] | 7.30 |
| Nc1nccc(Cc2cc3c(cc2Cl)[C@@](C#CC2CC2)(C(F)(F)F)NC(=O)N3)n1 [Example 31, (S)-7-((2-aminopyrimidin-4-yl)methyl)-6-chloro-4-(cyclo-propylethynyl)-4-(trifluoro-methyl)-3,4-dihydroquinazo-lin-2(1H)-one] | 7.23 |
| Nc1ncnc(Cc2ccc3c(c2)NC(=O)N[C@]3(C#CC2CC2)C(F)(F)F)n1 [Example 49, (S)-7-((4-amino-1,3,5-triazin-2-yl)methyl)-4-(cyclopropyl-ethynyl)-4-(trifluoromethyl)-3,4-dihydroquinazolin-2(1H)-one] | 6.84 |
| O=C1Nc2cc(Cc3ccncc3)c(F)cc2[C@@](C#CC2CC2)(C(F)(F)F)N1 [Example 57, (S)-4-(cyclopropylethynyl)-6-fluoro-7-(pyridin-4-ylmethyl)-4-(trifluoromethyl)-3,4-dihydroquinazolin-2(1H)-one] | 6.92 |
| Cc1nc(CO)[nH]c(=O)c1Cc1ccc2c(c1)NC(=O)N[C@]2(C#CC1CC1)C(F)(F)F [Example 63, (S)-4-(cyclopropylethynyl)-7-((2-(hydroxymethyl)-4-methyl-6-oxo-1,6-dihydropyrimidin-5-yl)methyl)-4-(trifluoromethyl)-3,4-dihydroquinazolin-2(1H)-one] | 6.75 |
| CN1C(=O)Nc2cc(Cc3ccnc(N)n3)c(Cl)cc2[C@@]1(C#CC1CC1)C(F)(F)F (single isomer, unassigned) [Example 30] | 7.19 |
| Cc1ccc(Cc2ccc3c(c2)NC(=O)N[C@]3(C#CC2CC2)C(F)(F)F)c(=O)[nH]1 [Example 1, (S)-4-(cyclopropylethynyl)-7-((6-methyl-2-oxo-1,2-dihydropyridin-3-yl)methyl)-4-(trifluoromethyl)-3,4-dihydroquinazolin-2(1H)-one] | 6.92 |
| O=C1Nc2cc(Cc3ccc[nH]c3=O)ccc2[C@@](C#CC2CC2)(C(F)(F)F)N1 [Example 3, (S)-4-(cyclopropylethynyl)-7-((2-oxo-1,2-dihydropyridin-3-yl)-methyl)-4-(trifluoromethyl)-3,4-dihydroquinazolin-2(1H)-one] | 6.63 |
| Nc1cc(Cc2cc3c(cc2F)[C@@](C#CC2CC2)(C(F)(F)F)NC(=O)N3)ccn1 [Example 14, (S)-2-amino-4-((4-(cyclopropyl-ethynyl)-6-fluoro-2-oxo-4-(trifluoromethyl)-1,2,3,4-tetra-hydroquinazolin-7-yl)methyl)-pyridin-1-ium 2,2,2-trifluoro-acetate] | 6.92 |
| Cn1cc(Cc2ccc3c(c2)NC(=O)N[C@]3(C#CC2CC2)C(F)(F)F)ccc1=O [Example 4, (S)-4-(cyclopropylethynyl)-7-((1-methyl-6-oxo-1,6-dihydropyridin-3-yl)methyl)-4-(trifluoromethyl)-3,4-dihydroquinazolin-2(1H)-one] | 6.83 |
| CN1C(=O)Nc2cc(Cc3ccnc(N)n3)c(F)cc2[C@@]1(C#CC1CC1)C(F)(F)F (single isomer, unassigned) [Example 40] | 7.38 |
| O=C1Nc2cc(Cc3ccc(OCCO)cn3)c(F)cc2[C@@](C#CC2CC2)(C(F)(F)F)N1 [Example 42, (S)-4-(cyclopropylethynyl)-6-fluoro-7-((5-(2-hydroxyethoxy)pyridin-2-yl)methyl)-4-(trifluoromethyl)-3,4-dihydroquinazolin-2(1H)-one] | 6.79 |
| Cc1nc(C)c(Cc2cc3c(cc2F)[C@@](C#CC2CC2)(C(F)(F)F)NC(=O)N3)c(=O)[nH]1 [Example 17, (S)-4-(cyclopropylethynyl)-7-((2,4-dimethyl-6-oxo-1,6-dihydropyrimidin-5-yl)meth-yl)-6-fluoro-4-(trifluorometh-yl)-3,4-dihydroquinazolin-2(1H)-one] | 7.34 |
